Experimental data from patent US8367584B2, “Naphthalene isoxazoline compounds for control of invertebrate pests” (E.I. du Pont de Nemours and Company, priority 2007, dated 2013).

Assays:
Format in all cases: in vivo
[1] = system: fall armyworm (Spodoptera frugiperda); experiment: Test B: control of fall armyworm on corn (maize) plant, foliar spray; conditions: sprayed at 50 ppm; 1-day-old larvae on corn (maize) plant; three replicates
Experimental: (§1) Test compounds were formulated using a solution containing 10% acetone, 90% water and 300 ppm X^77™ Spreader Lo-Foam Formula non-ionic surfactant containing alkylarylpolyoxyethylene, free fatty acids, glycols and isopropanol (Loveland Industries, Inc. Greeley, Colo., USA). The formulated compounds were applied in 1 mL of liquid through a SUJ2 atomizer nozzle with 1/8 JJ custom body (Spraying Systems Co. Wheaton, Ill., USA) positioned 1.27 cm (0.5 inches) above the top of each test unit. All experimental compounds in this test were sprayed at 50 ppm, and the test was replicated three times. After spraying of the formulated test compound, each test unit was allowed to dry for 1 h and then a black, screened cap was placed on top. The test units were held for 6 days in a growth chamber at 25° C. and 70% relative humidity. Plant feeding damage was then visually assessed based on foliage consumed and a pest mortality rating was also counted and calculated for each test unit.
For evaluating control of fall armyworm (Spodoptera frugiperda), the test unit consisted of a small open container with a 4-5-day-old corn (maize) plant inside. This was pre-infested (using a core sampler) with 10-15 1-day-old larvae on a piece of insect diet. Test compounds were formulated and sprayed at 50 ppm as described for Test A, and the test was replicated three times. After spraying, the test units were maintained in a growth chamber and then the control efficacy was rated for each test unit as described for Test A.

[2] = system: potato leafhopper (Empoasca fabae); experiment: Test C: control of potato leafhopper through contact and/or systemic means on Soleil bean plant; conditions: 144 h, sprayed at 250 ppm, adults on Soleil bean plant, held 6 days at 19-21° C., three replicates, read-out: control efficacy: mortality
Experimental: as §1
For evaluating control of potato leafhopper (Empoasca fabae) through contact and/or systemic means, the test unit consisted of a small open container with a 5-6-day-old Soleil bean plant (primary leaves emerged) inside. White sand was added to the top of the soil and one of the primary leaves was excised prior to application. Test compounds were formulated and sprayed as described for Test A. All experimental compounds in these tests were sprayed at 250 ppm, and the test was replicated three times. After spraying, the test units were allowed to dry for 1 hour before they were post-infested with 5 potato leafhoppers (18-21-day-old adults). A black, screened cap was placed on the top of the cylinder. The test units were held for 6 days in a growth chamber at 19-21° C. and 50-70% relative humidity. The control efficacy of each test unit was then visually assessed by the insect mortality.

[3] = system: diamondback moth (Plutella xylostella); experiment: Test A: control of diamondback moth on radish plant, foliar spray; conditions: sprayed at 50 ppm; neonate larvae on radish plant; held 6 days at 25° C.; three replicates
Description: For evaluating control of diamondback moth (Plutella xylostella), the test unit consisted of a small open container with a 12-14-day-old radish plant inside. This was pre-infested with about 50 neonate larvae that were dispensed into the test unit via corn-cob grits using a bazooka inoculator. The larvae moved onto the test plant after being dispensed into the test unit.
as §1

[4] = system: green peach aphid (Myzus persicae); experiment: Test E: control of green peach aphid through contact and/or systemic means on radish plant; conditions: 144 h, sprayed at 250 ppm, aphids on radish plant, held 6 days at 19-21° C., three replicates, read-out: control efficacy: mortality
Experimental: Test compounds were formulated using a solution containing 10% acetone, 90% water and 300 ppm X^77™ Spreader Lo-Foam Formula non-ionic surfactant containing alkylarylpolyoxyethylene, free fatty acids, glycols and isopropanol (Loveland Industries, Inc. Greeley, Colo., USA). The formulated compounds were applied in 1 mL of liquid through a SUJ2 atomizer nozzle with 1/8 JJ custom body (Spraying Systems Co. Wheaton, Ill., USA) positioned 1.27 cm (0.5 inches) above the top of each test unit. All experimental compounds in this test were sprayed at 50 ppm, and the test was replicated three times. After spraying of the formulated test compound, each test unit was allowed to dry for 1 h and then a black, screened cap was placed on top. The test units were held for 6 days in a growth chamber at 25° C. and 70% relative humidity. Plant feeding damage was then visually assessed based on foliage consumed and a pest mortality rating was also counted and calculated for each test unit. […]
Test compounds were formulated and sprayed as described for Test A. All experimental compounds in these tests were sprayed at 250 ppm, and the test was replicated three times. […] Each test unit was then visually assessed for insect mortality.

[5] = system: silverleaf whitefly (Bemisia tabaci); experiment: Test F: control of silverleaf whitefly on cotton plant; conditions: 144 h, sprayed at 250 ppm, 2nd and 3rd instar nymphs on cotton plant, held 6 days, three replicates, read-out: control efficacy: mortality
Experimental: For evaluating control of silverleaf whitefly (Bemisia tabaci), the test unit consisted of a 14-21-day-old cotton plant grown in Redi-earth® media (Scotts Co.) with at least two true leaves infested with 2nd and 3rd instar nymphs on the underside of the leaves.
Test compounds were formulated in no more than 2 mL of acetone and then diluted with water to 25-30 mL. The formulated compounds were applied using a flat fan air-assisted nozzle (Spraying Systems 122440) at 10 psi (69 kPa). Plants were sprayed to run-off on a turntable sprayer (patent publication EP-1110617-A1). All experimental compounds in this screen were sprayed at 250 ppm, and the test was replicated three times. After spraying of the test compound, the test units were held for 6 days in a growth chamber at 50-60% relative humidity and 28° C. daytime and 24° C. nighttime temperature. Then the leaves were removed and then dead and live nymphs were counted to calculate percent mortality.

[6] = system: western flower thrip (Frankliniella occidentalis); experiment: Test D: control of western flower thrip through contact and/or systemic means on Soleil bean plant; conditions: sprayed at 250 ppm; adult thrips on Soleil bean plant; held 6 days at 25° C.; three replicates
Experimental: as §1
For evaluating control of the western flower thrip (Frankliniella occidentalis) through contact and/or systemic means, the test unit consisted of a small open container with a 5-7-day-old Soleil Bean plant inside. […] A mortality rating was assessed along with a plant damage rating for each test unit.

SMILES | control efficacy (20% or less feeding damage or 80% or more mortality) [1] | mortality at 250 ppm [2] | control efficacy (20% or less feeding damage or 80% or more mortality) [3] | mortality at 250 ppm [4] | mortality at 250 ppm [5] | control efficacy (20% or less feeding damage or 80% or more mortality) [6]
O=C(NCc1ccc(C2=NOC(c3cc(Cl)cc(Cl)c3)(C(F)(F)F)C2)c2ccccc12)C1CC1 (stereo not shown) [Compound 1, N-[[4-[5-(3,5-dichlorophenyl)-4,5-dihydro-5-(trifluoromethyl)-3-isoxazolyl]-1-naphthalenyl]methyl]cyclopropanecarboxamide] | very good to excellent levels of control efficacy | ≥ 80% | very good to excellent levels of control efficacy | – | – | –
CC(C)C(=O)NCc1ccc(C2=NOC(c3cc(Cl)cc(Cl)c3)(C(F)(F)F)C2)c2ccccc12 (stereo not shown) [Compound 2] | very good to excellent levels of control efficacy | ≥ 80% | very good to excellent levels of control efficacy | ≥ 80% | ≥ 80% | –
N#CC(NC(=O)C1CC1)c1ccc(C2=NOC(c3cc(Cl)cc(Cl)c3)(C(F)(F)F)C2)c2ccccc12 (stereo not shown) [Compound 3] | – | – | very good to excellent levels of control efficacy | – | – | very good to excellent levels of control efficacy
CC(C)C(=O)NC(C)c1ccc(C2=NOC(c3cc(C(F)(F)F)cc(C(F)(F)F)c3)(C(F)(F)F)C2)c2ccccc12 (stereo not shown) [Compound 4] | – | – | very good to excellent levels of control efficacy | – | – | –
CC(C)C(=O)NCc1ccc(C2=NOC(c3cc(Cl)cc(C(F)(F)F)c3)(C(F)(F)F)C2)c2ccccc12 (stereo not shown) [Compound 5] | very good to excellent levels of control efficacy | ≥ 80% | very good to excellent levels of control efficacy | ≥ 80% | ≥ 80% | –
O=C(NCc1ccc(C2=NOC(c3cc(Cl)cc(C(F)(F)F)c3)(C(F)(F)F)C2)c2ccccc12)C1CC1 (stereo not shown) [Compound 6] | very good to excellent levels of control efficacy | ≥ 80% | very good to excellent levels of control efficacy | – | – | –
